Here are results for three compounds from US20190076510A1, “PROTEIN KINASE C INHIBITION TO EXTEND TISSUE PLASMINOGEN ACTIVATOR TREATMENT FOR ISCHEMIC DISEASE” (THE REGENTS OF THE UNIVERSITY OF MICHIGAN, priority 2017, published 2019).

For series [1], the system named is photothrombotic MCAO mice. Nature of the series: MCAO-induced cerebral vascular permeability to fluorescent-labeled 70 kDa dextran. It is filed as in vivo, mouse. As to conditions: separate experiments.
Series [2] deals with vascular permeability in the eye. As to conditions: in vivo; cited from earlier work.
For series [3], the system named is photothrombotic MCAO mice. Nature of the series: Hemorrhagic transformation (ICH) after MCAO with late rtPA thrombolysis. It is filed as in vivo, mouse. As to conditions: rtPA given 5 hours after stroke. The source says: Transgenic mouse lines and commercially available laboratory mouse strains (Jackson Labs) were bred using standard procedures. These strains include wild-type C57BL/6J mice, and C57BL/6J mice with diet-induced obesity. Transgenic mice include mice deficient in tissue type plasminogen activator (tPA^−/−), mice expressing the S490A mutant of occludin, and mice expressing Cre under the vascular endothelium. The numbers of mice used are necessary to maintain the breeding colonies and to obtain statistical significance in the experiments. Mouse pups are weaned at 3 weeks of age. Mice are marked with standard mouse ear tags. […] Both male and female mice are used, but are initially analyzed separately. […]
Using the Tek promoter for control of stop flox expression, however, leads to 85% of bone marrow-derived cells expressing the gene as well as endothelial cells (Genesis. 2010 September; 48(9):563-7)). […] Expression of Tg:S490AOcc^+/+ reduced permeability induced by MCAO, as measured using 70 kDa dextran labeled with Texas Red (dextran). […] Five images surrounding the infarct were taken and mean pixel intensity was determined using Imaris software, averaged for each mouse with n of at least 8 mice. […]
In addition to these studies, the effect of the PKC-β inhibition on hemorrhagic transformation was measured after tPA induction in MCAO mice. […]

The next series concerns acute ischemic stroke. As to conditions: intravenous rtPA within 3-4.5 hours; cited from earlier work.

Consider `CN(C)C[C@@H]1CCn2cc(c3ccccc32)C2=C(C(=O)NC2=O)c2cn(c3ccccc23)CCO1` [LY333531], for which the “reduction in cerebral permeability to dextran (surgical removal of ischemic region and penumbra, dye extraction)” value in series [1] is given as around 30%.
With `CN(C)C[C@@H]1CCn2cc(c3ccccc32)C2=C(C(=O)NC2=O)c2cn(c3ccccc23)CCO1` [Ruboxistaurin®], in series [2], the “vascular permeability and edema in the eye” value is “shown to reduce vascular permeability and edema in the eye”.
As to “rtPA: recombinant tissue plasminogen activator, thrombolytic”, the “hemorrhagic transformation from late rtPA treatment (area of hemoglobin in serial brain sections)” value in series [3] is on record as “clear increase”. In addition, the “patients having absolute benefit” value with acute ischemic stroke is listed as 90 out of 1000.
